Source: patent US10800774B2, “Heterocyclic inhibitors of ATR kinase” (Board of Regents, The University of Texas System, priority 2017, dated 2020)

Experiments:
ATR/ATRIP complex = ATR/ATRIP complex (Homo sapiens (Human), UniProt Q13535); assay: ATR/ATRIP enzymatic assay (Caliper-based); type: biochemical; conditions: FAM-labeled RAD17 peptide, ATP; read-out: ATR/ATRIP Enzyme IC50
Method: Human full-length FLAG-TEV-ATR and His6-ATRIP were co-expressed in HEK293 cells. […] The sample was loaded into a column, and then washed with buffer A three times. Protein was subsequently eluted with 2 ml of buffer B (buffer A+200 μg/ml 3×FLAG peptide).
The ability of new chemical matter to inhibit the ATR catalytic activity in this ATR/ATRIP complex was assessed using a Caliper-based assay. A 2× enzyme solution (i.e., 4 nM enzyme) was prepared using 1× Kinase Reaction Buffer (25 mM HEPES pH 8, 0.0055% Brij-35, 10 mM MnCl2, and 1 mM DTT). […] 10 μL of the 2× enzyme solution was transferred to an assay plate containing 60 nL of test compound (from a 3× serial dilution) in 100% DMSO. Following a 30 minute incubation at 28° C., 10 μL of the 2× peptide solution was then transferred to the same assay plate. The reaction was allowed to incubate at 28° C. for 6 hours. After adding […] of stop buffer (100 mM HEPES pH 7.5, 0.015% Brij-35, 0.2% Coating-3 Reagent (PerkinElmer, catalog # PN760050), and 50 mM EDTA), data were collected on a Caliper instrument. Conversion values were converted to inhibition values via the following equation: % inhibition=(max−conversion)/(max−min)*100, whereby “max” corresponds to the DMSO control and “min” corresponds to the low control. IC50 values were calculated using the following equation in XLFit: Y=Bottom+(Top−Bottom)/1+(IC50/X)^HillSlope).

[1] = tested on: ATR-driven phosphorylation of Chk1 kinase at Serine 345 in HT-29 cells; assay: pCHK1 cellular assay (CHK1 p-Ser345 AlphaScreen SureFire); conditions: Homo sapiens, HT-29, read-out: pCHK1 Cell IC50
Method: The microplate was incubated overnight (approximately 20 hours) at 37° C. with 5% CO2 and ambient 02. Stock solutions of the test compounds were prepared in 100% DMSO (Sigma, Catalog # D2650) and serially diluted 1:3 using 100% DMSO. Compounds were additionally diluted 1:33 in culture medium, and 10 ul/well were transferred to the tissue culture plate. Following the compound addition the microplate was incubated at 37° C. for 90 minutes. […] The cells were then washed with PBS and lysed using 10 uL/well […] ® Kit lysis buffer diluted to 1× in water (PerkinElmer Catalog # TGRCHK1S50K), with mixing on an orbital shaker at 500 rpm for 20 min at RT. Lysates were frozen at −20° C. overnight.
The pCHK1 ALPHASCREEN® signal was measured using an ENVISION® plate reader (PerkinElmer). IC50 values were calculated using a four-parameter logistic curve fit using Genedata Screener software. Percent of control for each compound concentration was calculated by the following formula: 100*(Compound-Min)/(Max-Min) where “Max” is the high control, DMSO, and “Min” is the low control, 5 uM ATR inhibitor.

ATR/ATRIP complex, sequence (Q13535 whole entry): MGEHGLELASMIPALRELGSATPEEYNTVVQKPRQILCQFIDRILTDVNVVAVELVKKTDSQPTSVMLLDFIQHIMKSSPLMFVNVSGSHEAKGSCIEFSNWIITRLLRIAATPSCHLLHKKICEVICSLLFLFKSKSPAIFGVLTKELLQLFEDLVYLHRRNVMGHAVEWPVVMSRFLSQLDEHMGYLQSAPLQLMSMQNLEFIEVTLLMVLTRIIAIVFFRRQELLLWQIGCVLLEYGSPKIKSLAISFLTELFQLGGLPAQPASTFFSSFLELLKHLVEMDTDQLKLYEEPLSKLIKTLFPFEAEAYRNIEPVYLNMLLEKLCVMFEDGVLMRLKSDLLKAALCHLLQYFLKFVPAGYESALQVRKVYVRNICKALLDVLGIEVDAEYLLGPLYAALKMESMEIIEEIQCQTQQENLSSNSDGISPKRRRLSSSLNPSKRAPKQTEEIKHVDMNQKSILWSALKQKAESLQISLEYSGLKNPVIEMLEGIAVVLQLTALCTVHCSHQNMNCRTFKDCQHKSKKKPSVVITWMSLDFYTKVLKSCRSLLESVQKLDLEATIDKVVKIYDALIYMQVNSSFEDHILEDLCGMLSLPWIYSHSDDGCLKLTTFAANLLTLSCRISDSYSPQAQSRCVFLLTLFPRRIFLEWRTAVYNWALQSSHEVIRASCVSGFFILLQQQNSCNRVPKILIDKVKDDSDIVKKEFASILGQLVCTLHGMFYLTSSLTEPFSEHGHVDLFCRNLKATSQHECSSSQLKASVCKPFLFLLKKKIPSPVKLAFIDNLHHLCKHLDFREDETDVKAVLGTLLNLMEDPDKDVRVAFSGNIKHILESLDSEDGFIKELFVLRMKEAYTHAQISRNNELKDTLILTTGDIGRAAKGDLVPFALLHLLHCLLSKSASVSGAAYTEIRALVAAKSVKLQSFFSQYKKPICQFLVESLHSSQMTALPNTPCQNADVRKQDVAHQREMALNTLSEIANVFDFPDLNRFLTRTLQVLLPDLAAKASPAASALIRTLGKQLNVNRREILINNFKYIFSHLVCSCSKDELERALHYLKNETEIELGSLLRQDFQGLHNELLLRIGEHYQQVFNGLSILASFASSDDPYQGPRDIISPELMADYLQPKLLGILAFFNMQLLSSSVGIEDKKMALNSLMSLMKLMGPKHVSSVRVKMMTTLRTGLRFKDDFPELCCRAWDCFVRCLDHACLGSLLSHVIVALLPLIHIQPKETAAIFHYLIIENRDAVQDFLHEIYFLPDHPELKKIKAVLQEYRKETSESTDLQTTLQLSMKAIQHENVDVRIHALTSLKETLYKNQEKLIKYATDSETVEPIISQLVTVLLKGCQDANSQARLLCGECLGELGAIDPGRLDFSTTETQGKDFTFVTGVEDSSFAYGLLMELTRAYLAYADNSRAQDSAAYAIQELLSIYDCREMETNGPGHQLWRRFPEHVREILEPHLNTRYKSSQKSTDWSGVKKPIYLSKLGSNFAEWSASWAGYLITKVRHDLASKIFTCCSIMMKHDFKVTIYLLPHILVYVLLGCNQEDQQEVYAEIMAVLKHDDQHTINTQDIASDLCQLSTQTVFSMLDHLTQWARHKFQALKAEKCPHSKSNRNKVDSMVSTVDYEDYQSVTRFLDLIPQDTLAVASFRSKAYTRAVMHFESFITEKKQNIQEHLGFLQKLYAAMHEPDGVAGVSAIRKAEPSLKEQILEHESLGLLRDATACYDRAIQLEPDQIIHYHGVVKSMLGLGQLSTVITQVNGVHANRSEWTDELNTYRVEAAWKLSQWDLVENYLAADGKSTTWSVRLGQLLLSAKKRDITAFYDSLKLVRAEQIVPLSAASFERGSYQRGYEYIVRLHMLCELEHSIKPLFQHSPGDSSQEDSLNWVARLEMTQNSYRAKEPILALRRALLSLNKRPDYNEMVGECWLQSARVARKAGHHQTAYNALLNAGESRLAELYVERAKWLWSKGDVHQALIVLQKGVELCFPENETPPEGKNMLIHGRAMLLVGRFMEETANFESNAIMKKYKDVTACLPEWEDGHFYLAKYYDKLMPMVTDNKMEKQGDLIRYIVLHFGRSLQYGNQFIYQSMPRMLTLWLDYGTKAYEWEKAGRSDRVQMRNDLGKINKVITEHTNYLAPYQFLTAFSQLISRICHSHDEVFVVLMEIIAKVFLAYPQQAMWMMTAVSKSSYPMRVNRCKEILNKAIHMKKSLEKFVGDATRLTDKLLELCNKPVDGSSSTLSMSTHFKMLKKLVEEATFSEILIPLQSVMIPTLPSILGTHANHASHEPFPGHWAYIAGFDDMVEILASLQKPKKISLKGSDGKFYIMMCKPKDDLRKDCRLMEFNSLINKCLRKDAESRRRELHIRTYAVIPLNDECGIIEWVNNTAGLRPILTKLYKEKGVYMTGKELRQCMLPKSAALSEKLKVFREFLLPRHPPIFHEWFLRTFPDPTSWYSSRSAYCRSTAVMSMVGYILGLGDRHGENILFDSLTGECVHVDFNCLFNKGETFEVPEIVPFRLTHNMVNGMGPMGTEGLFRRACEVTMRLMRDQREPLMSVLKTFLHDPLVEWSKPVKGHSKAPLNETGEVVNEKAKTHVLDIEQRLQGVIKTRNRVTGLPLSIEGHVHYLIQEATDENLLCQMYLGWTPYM
ATR/ATRIP complex, sequence (Q8WXE1 whole entry partner): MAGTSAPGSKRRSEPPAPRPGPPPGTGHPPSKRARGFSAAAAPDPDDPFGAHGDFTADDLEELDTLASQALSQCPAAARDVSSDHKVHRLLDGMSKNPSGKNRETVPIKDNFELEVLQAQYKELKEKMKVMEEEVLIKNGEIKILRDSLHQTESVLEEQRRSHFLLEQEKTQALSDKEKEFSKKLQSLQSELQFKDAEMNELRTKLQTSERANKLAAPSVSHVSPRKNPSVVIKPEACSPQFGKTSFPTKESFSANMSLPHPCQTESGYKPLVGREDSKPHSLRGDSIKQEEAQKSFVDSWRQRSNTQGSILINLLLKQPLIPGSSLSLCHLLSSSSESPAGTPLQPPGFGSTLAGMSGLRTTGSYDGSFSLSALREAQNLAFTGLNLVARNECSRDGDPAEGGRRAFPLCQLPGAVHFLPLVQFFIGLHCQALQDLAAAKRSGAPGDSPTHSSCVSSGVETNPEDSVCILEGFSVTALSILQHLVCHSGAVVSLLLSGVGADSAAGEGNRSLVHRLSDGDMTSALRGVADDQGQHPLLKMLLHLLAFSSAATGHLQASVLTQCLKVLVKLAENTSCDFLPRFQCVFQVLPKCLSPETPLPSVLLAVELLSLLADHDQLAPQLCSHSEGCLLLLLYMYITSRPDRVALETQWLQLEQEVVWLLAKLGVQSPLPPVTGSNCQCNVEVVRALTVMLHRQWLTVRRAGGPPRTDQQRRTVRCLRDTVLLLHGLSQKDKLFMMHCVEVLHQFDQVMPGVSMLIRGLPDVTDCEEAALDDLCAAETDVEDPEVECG

IC50 (ATR/ATRIP complex)	IC50 [1]	Structure (SMILES)
31 nM	177 nM	C[C@@H]1COCCN1c1cc(C2CCCS2(=O)=O)nc(-c2cc(Cl)nc3[nH]ccc23)n1 (single isomer, unassigned) [Example 5a]
72 nM	435 nM	C[C@@H]1COCCN1c1cc([C@H]2CCCS2(=O)=O)nc(-c2cc(Cl)nc3[nH]ccc23)n1 (single isomer, unassigned) [Example 5b]
7 nM	95 nM	CCN1CCCN(c2cc(N3CCOC[C@H]3C)nc(-c3ccnc4[nH]ccc34)n2)S1(=O)=O [Example 1, (R)-2-Ethyl-6-(6-(3-methylmorpholino)-2-(1H-pyrrolo[2,3-b]pyridin-4-yl)pyrimidin-4-yl)-1,2,6-thiadiazinane 1,1-dioxide]
48 nM	496 nM	C[C@@H]1COCCN1c1cc(C2CCN(C)C2=O)nc(-c2ccnc3[nH]ccc23)n1 (stereo partly drawn) [Example 3, 1-Methyl-3-(6-((R)-3-methylmorpholino)-2-(1H-pyrrolo[2,3-b]pyridin-4-yl)pyrimidin-4-yl)pyrrolidin-2-one]
52 nM	505 nM	C[C@@H]1COCCN1c1cc(N2CCCN(C)S2(=O)=O)nc(-c2cc(Cl)nc3[nH]ccc23)n1 [Example 6, (R)-2-(2-(6-Chloro-1H-pyrrolo[2,3-b]pyridin-4-yl)-6-(3-methylmorpholino)pyrimidin-4-yl)-6-methyl-1,2,6-thiadiazinane 1,1-dioxide]
7 nM	301 nM	CC(C)N1CCCN(c2cc(N3CCOC[C@H]3C)nc(-c3ccnc4[nH]ccc34)n2)S1(=O)=O [Example 8, 2-{6-[(3R)-3-Methylmorpholin-4-yl]-2-{1H-pyrrolo[2,3-b]pyridin-4-yl}pyrimidin-4-yl}-6-(propan-2-yl)-1λ^6,2,6-thiadiazinane-1,1-dione]
115 nM	570 nM	CCN1CCCN(c2cc(N3CCOC[C@H]3C)nc(-c3cc(Cl)nc4[nH]ccc34)n2)S1(=O)=O [Example 9, 2-(2-{6-Chloro-1H-pyrrolo[2,3-b]pyridin-4-yl}-6-[(3R)-3-methylmorpholin-4-yl]pyrimidin-4-yl)-6-ethyl-1λ^6,2,6-thiadiazinane-1,1-dione]
7 nM	134 nM	C[C@@H]1COCCN1c1cc(C2CCCN(S(C)(=O)=O)C2)nc(-c2ccnc3[nH]ccc23)n1 (stereo partly drawn) [Example 10, (3R)-4-[6-(1-Methane-sulfonylpiperidin-3-yl)-2-{1H-pyrrolo[2,3-b]pyridin-4-yl}pyrimidin-4-yl]-3-methylmorpholine]
8 nM	97 nM	C[C@@H]1COCCN1c1cc(C2CCN(S(C)(=O)=O)C2)nc(-c2ccnc3[nH]ccc23)n1 (stereo partly drawn) [Example 11, (3R)-4-[6-(1-Methane-sulfonylpyrrolidin-3-yl)-2-{1H-pyrrolo[2,3-b]pyridin-4-yl}pyrimidin-4-yl]-3-methylmorpholine]
24 nM	128 nM	CC(=O)N1CCC(c2cc(N3CCOC[C@H]3C)nc(-c3ccnc4[nH]ccc34)n2)CC1 [Example 12, 1-(4-{6-[(3R)-3-Methylmorpholin-4-yl]-2-{1H-pyrrolo[2,3-b]pyridin-4-yl}pyrimidin-4-yl}piperidin-1-yl) ethan-1-one]
10 nM	186 nM	COC(=O)N1CCC(c2cc(N3CCOC[C@H]3C)nc(-c3ccnc4[nH]ccc34)n2)CC1 [Example 13, Methyl 4-{6-[(3R)-3-methylmorpholin-4-yl]-2-{1H-pyrrolo[2,3-b]pyridin-4-yl}pyrimidin-4-yl}piperidine-1-carboxylate]
17 nM	166 nM	C[C@@H]1COCCN1c1cc(C2CCOCC2)nc(-c2ccnc3[nH]ccc23)n1 [Example 14, (3R)-3-Methyl-4-[6-(oxan-4-yl)-2-{1H-pyrrolo[2,3-b]-pyridin-4-yl}pyrimidin-4-yl]-morpholine]
10 nM	210 nM	CC(=O)N1CCCC(c2cc(N3CCOC[C@H]3C)nc(-c3ccnc4[nH]ccc34)n2)C1 (stereo partly drawn) [Example 15, 1-(3-{6-[(3R)-3-Methylmorpholin-4-yl]-2-{1H-pyrrolo[2,3-b]pyridin-4-yl}pyrimidin-4-yl}piperidin-1-yl) ethan-1-one]
19 nM	242 nM	CC(=O)N1CCC(c2cc(N3CCOC[C@H]3C)nc(-c3ccnc4[nH]ccc34)n2)C1 (stereo partly drawn) [Example 16, 1-(3-{6-[(3R)-3-Methyl-morpholin-4-yl]-2-{1H-pyrrolo[2,3-b]pyridin-4-yl}-pyrimidin-4-yl}pyrrolidin-1-yl) ethan-1-one]
10 nM	138 nM	COC(=O)N1CCC(c2cc(N3CCOC[C@H]3C)nc(-c3ccnc4[nH]ccc34)n2)C1 (stereo partly drawn) [Example 17, Methyl 3-{6-[(3R)-3-methylmorpholin-4-yl]-2-{1H-pyrrolo[2,3-b]pyridin-4-yl}pyrimidin-4-yl}-pyrrolidine-1-carboxylate]
14 nM	191 nM	CNC(=O)N1CCC(c2cc(N3CCOC[C@H]3C)nc(-c3ccnc4[nH]ccc34)n2)C1 (stereo partly drawn) [Example 18, N-methyl-3-{6-[(3R)-3-methylmorpholin-4-yl]-2-{1H-pyrrolo[2,3-b]pyridin-4-yl}pyrimidin-4-yl}-pyrrolidine-1-carboxamide]
47 nM	921 nM	C[C@@H]1COCCN1c1cc(C2CCCN(C)C2=O)nc(-c2ccnc3[nH]ccc23)n1 (stereo partly drawn) [Example 19, 1-Methyl-3-{6-[(3R)-3-methylmorpholin-4-yl]-2-{1H-pyrrolo[2,3-b]pyridin-4-yl}pyrimidin-4-yl} piperidin-2-one]
15 nM	51 nM	CCC(=O)N1CCC(c2cc(N3CCOC[C@H]3C)nc(-c3ccnc4[nH]ccc34)n2)CC1 [Example 20, 1-(4-{6-[(3R)-3-Methylmorpholin-4-yl]-2-{1H-pyrrolo[2,3-b]pyridin-4-yl}pyrimidin-4-yl}piperidin-1-yl) propan-1-one]
22 nM	82 nM	C[C@@H]1COCCN1c1cc(C2CCN(C(=O)C3CC3)CC2)nc(-c2ccnc3[nH]ccc23)n1 [Example 21, (3R)-4-[6-(1-Cyclopropanecarbonylpiperidin-4-yl)-2-{1H-pyrrolo[2,3-b]pyridin-4-yl}pyrimidin-4-yl]-3-methylmorpholine]
15 nM	109 nM	CCOC(=O)N1CCC(c2cc(N3CCOC[C@H]3C)nc(-c3ccnc4[nH]ccc34)n2)CC1 [Example 22, Ethyl 4-{6-[(3R)-3-methylmorpholin-4-yl]-2-{1H-pyrrolo[2,3-b]pyridin-4-yl}pyrimidin-4-yl} piperidine-1-carboxylate]
5 nM	21 nM	C[C@@H]1COCCN1c1cc(C2CCN(S(=O)(=O)C3CC3)CC2)nc(-c2ccnc3[nH]ccc23)n1 [Example 23, (3R)-4-{6-[1-(Cyclopropane-sulfonyl)piperidin-4-yl]-2-{1H-pyrrolo[2,3-b]pyridin-4-yl}pyrimidin-4-yl}-3-methylmorpholine]
13 nM	85 nM	COCC(=O)N1CCC(c2cc(N3CCOC[C@H]3C)nc(-c3ccnc4[nH]ccc34)n2)CC1 [Example 24, 2-Methoxy-1-(4-{6-[(3R)-3-methylmorpholin-4-yl]-2-{1H-pyrrolo[2,3-b]pyridin-4-yl}pyrimidin-4-yl}piperidin-1-yl) ethan-1-one]
16 nM	139 nM	C[C@@H]1COCCN1c1cc(C2CCN(C(=O)CC3CC3)CC2)nc(-c2ccnc3[nH]ccc23)n1 [Example 25, 2-Cyclopropyl-1-(4-{6-[(3R)-3-methylmorpholin-4-yl]-2-{1H-pyrrolo[2,3-b]pyridin-4-yl}pyrimidin-4-yl}piperidin-1-yl) ethan-1-one]
8 nM	86 nM	C[C@@H]1COCCN1c1cc(C2CCCCS2(=O)=O)nc(-c2ccnc3[nH]ccc23)n1 (stereo partly drawn) [Example 26, 2-{6-[(3R)-3-Methyl-morpholin-4-yl]-2-{1H-pyrrolo[2,3-b]pyridin-4-yl}pyrimidin-4-yl}-1λ^6-thiane-1,1-dione]
15 nM	405 nM	CC(C)OC(=O)N1CCC(c2cc(N3CCOC[C@H]3C)nc(-c3ccnc4[nH]ccc34)n2)CC1 [Example 27, Propan-2-yl 4-{6-[(3R)-3-methylmorpholin-4-yl]-2-{1H-pyrrolo[2,3-b]pyridin-4-yl}pyrimidin-4-yl}piperidine-1-carboxylate]
17 nM	270 nM	C[C@@H]1COCCN1c1cc(C2CCN(C(=O)OCC3CC3)CC2)nc(-c2ccnc3[nH]ccc23)n1 [Example 28, Cyclopropylmethyl 4-{6-[(3R)-3-methylmorpholin-4-yl]-2-{1H-pyrrolo[2,3-b]-pyridin-4-yl}pyrimidin-4-yl}piperidine-1-carboxylate]
8 nM	89 nM	C[C@@H]1COCCN1c1cc(C2(C)CCCS2(=O)=O)nc(-c2ccnc3[nH]ccc23)n1 (stereo partly drawn) [Example 29, 2-Methyl-2-(6-((R)-3-methylmorpholino)-2-(1H-pyrrolo[2,3-b]pyridin-4-yl)pyrimidin-4-yl)tetrahydrothiophene 1,1-dioxide]
